By IC50 is commonly meant the midpoint of a concentration-inhibition curve.

SMILES strings stand for the structures.

Assay [1] deals with MDA-MB-231 cells. Nature of the assay: Cell proliferation assay (CellTiter-Glo), MDA-MB-231. Format: cell-based. To be noted: Homo sapiens, MDA-MB-231, 72 h, 72 h treatment, Celltiter-Glo luminescence. Summed up: (§1)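 Compounds tested over ten concentrations ([…]) for 72 h on EVSA-T cells in MEM/10% FBS and MDA-MB-231 cells in RPMI-1640/10% FBS, seeded at 10000/well. Luminescent CellTiter-Glo readout; IC50 fitted after normalisation to controls.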

The test system of assay [2] is EVSA-T cells. Nature of the assay: Cell proliferation assay (CellTiter-Glo), EVSA-T. Format: cell-based. To be noted: Homo sapiens, EVSA-T, 72 h, 72 h treatment, Celltiter-Glo luminescence. Summed up: as §1
(Cellular ATP, detected with luciferase, serves as a proxy for viable cell number.)

With `C[C@@H]1CN(CC(=O)N2CC(C)(C)c3c2cc(Cc2ccc(F)cc2)c2nc(N4CCS(=O)(=O)CC4)nn32)[C@@H](CN2CCOC[C@H]2C)CN1` [Compound 199, 1-(2-(1,1-dioxidothiomorpholino)-4-(4-fluorobenzyl)-8,8-dimethyl-7,8-dihydro-6H-pyrrolo[2,3-e][1,2,4]triazolo[1,5-a]pyridin-6-yl)-2-((2R,5R)-5-methyl-2-(((R)-3-methylmorpholino)methyl)piperazin-1-yl)ethan-1-one], the IC50 in assay [1] was 0.02 µM; in assay [2] it was 0.006 µM.

`C[C@@H]1CN(CC(=O)N2CC(C)(C)c3c2cc(Cc2ccc(F)cc2)c2nc(C(=O)N(C)C)nn32)[C@@H](CN2CCOC[C@H]2C)CN1` [Compound 251, 4-(4-fluorobenzyl)-N,N,8,8-tetramethyl-6-(2-((2R,5R)-5-methyl-2-(((R)-3-methylmorpholino)methyl)piperazin-1-yl)acetyl)-7,8-dihydro-6H-pyrrolo[2,3-e][1,2,4]triazolo[1,5-a]pyridine-2-carboxamide]: the results for the IC50 in assay [1] and in assay [2] were 0.13 µM and 0.0296 µM, respectively.

On to `C[C@@H]1CN(CC(=O)N2CC(C)(C)c3c2cc(Cc2ccc(F)cc2)c2cncn32)[C@@H](CN2CCOC[C@H]2C)CN1` [Compound 1, 1-(4-(4-fluorobenzyl)-8,8-dimethyl-7,8-dihydro-6H-imidazo[1,5-a]pyrrolo[2,3-e]pyridin-6-yl)-2-((2R,5R)-5-methyl-2-(((R)-3-methylmorpholino)methyl)piperazin-1-yl)ethan-1-one], for which the values for the IC50 in assay [1] and in assay [2] were 0.077 µM and 0.007 µM, respectively.

In the case of `C[C@@H]1CN(CC(=O)N2CC(C)(C)c3c2cc(Cc2ccc(F)cc2)c2c(C#N)cnn32)[C@@H](CN2CCOC[C@H]2C)CN1` [Compound 105, 4-(4-fluorobenzyl)-8,8-dimethyl-6-(2-((2R,5R)-5-methyl-2-(((R)-3-methylmorpholino)methyl)piperazin-1-yl)acetyl)-7,8-dihydro-6H-pyrazolo[1,5-a]pyrrolo[2,3-e]pyridine-3-carbonitrile], the IC50 in assay [1] stood at 0.1 µM; in assay [2], 0.009 µM.

Turning to `C[C@@H]1CN(CC(=O)N2CC(C)(C)c3c2cc(Cc2ccc(F)cc2)c2nn(CC#N)c(=O)n32)[C@@H](CN2CCOC[C@H]2C)CN1` [Compound 185, 2-(4-(4-fluorobenzyl)-8,8-dimethyl-6-(2-((2R,5R)-5-methyl-2-(((R)-3-methylmorpholino)methyl)piperazin-1-yl)acetyl)-1-oxo-7,8-dihydro-1H-pyrrolo[2,3-e][1,2,4]triazolo[4,3-a]pyridin-2(6H)-yl)acetonitrile], the IC50 came to 0.023 µM in assay [1] and 0.007 µM in assay [2].

Consider `C[C@@H]1CN(CC(=O)N2CC(C)(C)c3c2cc(Cc2ccc(F)cc2)c2nc(N4CCOC4=O)nn32)[C@@H](CN2CCOC[C@H]2C)CN1` [Compound 204, 3-(4-(4-fluorobenzyl)-8,8-dimethyl-6-(2-((2R,5R)-5-methyl-2-(((R)-3-methylmorpholino)methyl)piperazin-1-yl)acetyl)-7,8-dihydro-6H-pyrrolo[2,3-e][1,2,4]triazolo[1,5-a]pyridin-2-yl)oxazolidin-2-one], for which the values for the IC50 in assay [1] and in assay [2] were 0.044 µM and 0.014 µM, respectively.

Consider `C[C@@H]1CN(CC(=O)N2CC(C)(C)c3c2cc(Cc2ccc(F)cc2)c2nn(CC(F)F)c(=O)n32)[C@@H](CN2CCOC[C@H]2C)CN1` [Compound 264, 2-(2,2-difluoroethyl)-4-(4-fluorobenzyl)-8,8-dimethyl-6-(2-((2R,5R)-5-methyl-2-(((R)-3-methylmorpholino)methyl)piperazin-1-yl)acetyl)-2,6,7,8-tetrahydro-1H-pyrrolo[2,3-e][1,2,4]triazolo[4,3-a]pyridin-1-one], for which the IC50 in assay [1] amounted to 0.015 µM; in assay [2] it was 0.0047 µM.
